Data as given in the supplement of paper PMC10307832.

Tests used:
Experiment in all cases: relative viability (nuclei count vs DMSO), 5 days (fraction); higher = more cells survive
[1] = compound: O=C(/C=C/c1ccccc1)NC(NC(=S)Nc1cccc2cccnc12)C(Cl)(Cl)Cl [Salubrinal] + Cc1nc(Nc2ncc(C(=O)Nc3c(C)cccc3Cl)s2)cc(N2CCN(CCO)CC2)n1 [Dasatinib] (partner 0.075 µM)
Procedure, shortened: (§1)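 Lung cancer cell lines in 1536-well plates got either a single drug or a fixed anchor-drug dose together with five library-drug doses (not always all listed) in √10 steps, by pin tool, on the day after seeding. Nuclei were counted after 5 days, and relative viability is the treated-to-vehicle ratio of nuclei counts. Values are medians of duplicate plates.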

[2] = compound: Cc1ccc2nc(NCCN)c3ncc(C)n3c2c1 + C[C@@H](Oc1cc(-c2cnn(C3CCNCC3)c2)cnc1N)c1c(Cl)ccc(F)c1Cl [Crizotinib] (partner 1 µM)
Procedure, shortened: as §1

[3] = compound: O=C(/C=C/c1ccccc1)NC(NC(=S)Nc1cccc2cccnc12)C(Cl)(Cl)Cl [Salubrinal] + CC1(C)CCC(c2ccc(Cl)cc2)=C(CN2CCN(c3ccc(C(=O)NS(=O)(=O)c4ccc(N[C@H](CCN5CCOCC5)CSc5ccccc5)c(S(=O)(=O)C(F)(F)F)c4)cc3)CC2)C1 [Navitoclax] (partner 0.5 µM)
Procedure, shortened: as §1

[4] = compound: O=C(/C=C/c1ccccc1)NC(NC(=S)Nc1cccc2cccnc12)C(Cl)(Cl)Cl [Salubrinal] + CCNC(=O)c1noc(-c2cc(C(C)C)c(O)cc2O)c1-c1ccc(CN2CCOCC2)cc1 [Luminespib] (partner 0.01 µM)
Procedure, shortened: as §1

| Cell Line | relative viability ([1]; first compound 0.08 µM) | relative viability ([1]; first compound 0.253 µM) | relative viability ([1]; first compound 0.8 µM) | relative viability ([1]; first compound 2.53 µM) | relative viability ([1]; first compound 8 µM) | relative viability ([2]; first compound 0.04 µM) | relative viability ([2]; first compound 0.1265 µM) | relative viability ([2]; first compound 0.4 µM) | relative viability ([2]; first compound 1.265 µM) | relative viability ([2]; first compound 4 µM) | relative viability ([3]; first compound 0.08 µM) | relative viability ([3]; first compound 0.253 µM) | relative viability ([3]; first compound 0.8 µM) | relative viability ([3]; first compound 2.53 µM) | relative viability ([3]; first compound 8 µM) | relative viability ([4]; first compound 0.08 µM) | relative viability ([4]; first compound 0.253 µM) | relative viability ([4]; first compound 0.8 µM) | relative viability ([4]; first compound 2.53 µM) | relative viability ([4]; first compound 8 µM) |
| --- | --- | --- | --- | --- | --- | --- | --- | --- | --- | --- | --- | --- | --- | --- | --- | --- | --- | --- | --- | --- |
| HCC-78 | 0.404 | 0.343 | 0.688 | 0.361 | 0.363 | 0.37 | 0.327 | 0.328 | 0.332 | 0.334 | 0.851 | 0.835 | 0.982 | 0.764 | 0.769 | – | – | – | – | – |
| HCC-366 | 0.813 | 0.497 | 0.777 | 0.555 | 0.528 | 0.642 | 0.553 | 0.582 | 0.508 | 0.502 | 1.27 | 0.871 | 0.985 | 0.975 | 0.971 | – | – | – | – | – |
| HCC-827 | 0.357 | 0.251 | 0.27 | 0.326 | 0.393 | 0.792 | 0.903 | 0.932 | 0.866 | 0.927 | 1.03 | 0.958 | 1.1 | 1.05 | 0.979 | 0.694 | 0.411 | 0.425 | 0.739 | 0.551 |
| HOP-62 | 0.662 | 0.586 | 0.703 | 0.742 | 0.478 | 1.01 | 0.895 | 0.811 | 0.812 | 0.835 | 1.04 | 0.822 | 1.09 | 1.01 | 0.958 | 0.936 | 0.676 | 0.968 | 0.882 | 0.861 |
| IA-LM | – | – | – | – | – | 1.05 | 0.945 | 0.631 | 0.787 | 0.631 | 0.847 | 0.79 | 0.782 | 0.595 | 0.533 | – | – | – | – | – |
| LC-2-ad | 0.543 | 0.354 | 1.11 | 0.581 | 0.448 | 0.467 | 0.448 | 0.44 | 0.406 | 0.476 | 0.5 | 0.35 | 0.666 | 0.54 | 0.413 | 1.06 | 1.13 | 1.05 | 0.979 | 0.98 |
| LCLC-97TM1 | 1.02 | 0.731 | 1.01 | 0.969 | 0.782 | 0.379 | 0.394 | 0.255 | 0.287 | 0.293 | 0.368 | 0.648 | 0.464 | – | 0.433 | 0.894 | 0.798 | 0.823 | 0.849 | 0.842 |
| LCLC-103H | 0.501 | 0.35 | 0.514 | 0.53 | 0.507 | 1.07 | 1.03 | 1.05 | 1.07 | 1.06 | – | – | – | – | – | 1.11 | 0.82 | 1.02 | 1.04 | 0.916 |
| LK-2 | 0.378 | 0.302 | 0.296 | 0.312 | 0.342 | 0.228 | 0.258 | 0.214 | 0.222 | 0.238 | 1.07 | 0.793 | 1.05 | 0.958 | 0.921 | 0.219 | 0.183 | 0.214 | 0.211 | 0.166 |
| LOU-NH91 | 0.565 | 0.481 | 0.672 | 0.56 | 0.499 | 0.753 | 0.714 | 0.748 | 0.727 | 0.749 | 0.81 | 0.73 | 0.737 | 0.699 | 0.617 | 0.304 | 0.381 | 0.358 | 0.305 | 0.386 |
| NCI-H358 | 0.173 | 0.23 | 0.154 | 0.149 | 0.145 | 0.613 | 0.594 | 0.691 | 0.583 | 0.487 | – | – | – | – | – | 0.277 | – | 0.553 | 0.478 | 0.38 |
| NCI-H522 | 0.988 | 0.976 | 0.981 | 0.869 | 0.972 | – | – | – | – | – | – | – | – | – | – | 1.13 | 0.97 | 1.13 | 1.12 | 1.11 |
| NCI-H650 | 0.425 | 0.462 | 0.462 | 0.474 | 0.413 | 0.855 | 0.608 | 0.718 | 0.583 | 0.672 | – | – | – | – | – | 0.753 | 0.791 | 0.845 | 0.786 | 0.767 |
| NCI-H661 | 0.995 | 0.921 | 0.928 | 0.871 | 0.86 | 1.05 | 1.07 | 0.931 | 1.07 | 0.959 | – | – | – | – | – | 0.912 | 0.763 | 0.919 | 0.905 | 0.941 |
| NCI-H1299 | – | – | – | – | – | 0.9 | 0.937 | 0.951 | 0.917 | 0.659 | 1.06 | 1.07 | 1.07 | 0.986 | 1.11 | – | – | – | – | – |
| NCI-H1395 | 0.409 | 0.443 | 0.472 | 0.4 | 0.392 | – | – | – | – | – | 1.08 | 1.26 | 1.12 | 1.06 | 1.29 | 0.761 | 0.701 | 0.774 | 0.729 | 0.644 |
| NCI-H1563 | 0.446 | 0.514 | 0.555 | 0.453 | 0.502 | 0.865 | 0.835 | 0.906 | 0.918 | 0.88 | – | – | – | – | – | 0.572 | 0.501 | 0.521 | 0.488 | 0.506 |
| NCI-H1623 | 0.475 | 0.485 | 0.54 | 0.514 | 0.572 | – | – | – | – | – | – | – | – | – | – | 0.465 | 0.648 | 0.541 | 0.435 | 0.441 |
| NCI-H1703 | – | – | – | – | – | 0.89 | 0.679 | 0.623 | 0.709 | 0.563 | 1.39 | 1.12 | 0.971 | 0.901 | 0.964 | – | – | – | – | – |
| NCI-H1793 | 0.448 | 0.421 | 0.359 | 0.385 | 0.398 | – | – | – | – | – | 0.476 | 0.432 | 0.431 | 0.351 | 0.339 | 0.231 | 0.168 | 0.206 | 0.162 | 0.244 |
| NCI-H2342 | 0.304 | 0.278 | 0.305 | 0.298 | 0.291 | – | – | – | – | – | – | – | – | – | – | 0.779 | 0.662 | 0.714 | 0.601 | 0.799 |
| SW 900 | 1.09 | – | 0.66 | 0.584 | 0.497 | – | – | – | – | – | – | – | – | – | – | 0.173 | – | 0.175 | 0.189 | 0.207 |
